The results in this text go back to patent US8299073B2, “P38 MAP kinase inhibitors” (Respivert Ltd., priority 2008, dated 2012).

The test system of series [1] is LPS-induced TNFα release in THP-1 cells. In words: LPS-induced TNF alpha release in THP-1 cells. In kind it is cell-based. The conditions noted are these: Homo sapiens, THP-1; LPS-induced TNFα release; read-out: IC50 values THP-1 cells.
Experimental: THP-1, human monocytic cell line, was also used for this assay. THP-1 cells were stimulated with 1 μg/ml of LPS (from E. coli: O111:B4, Sigma) for 4 hrs, and the supernatant collected for determination of TNFα concentration.
THP-1 cells, a human monocytic cell line, were stimulated with 1 μg/ml of LPS (from E. coli; O111:B4, Sigma) for 4 hr and the supernatant collected for determination of TNFα concentration by sandwich ELISA (Duo-set, R&D systems). The inhibition of TNFα production was calculated at each concentration by comparison with vehicle control.
Series [2] addresses T1, p38 MAPK alpha (MAPK14: Invitrogen) (Homo sapiens, UniProt Q16539).
T1 construct: purchased Invitrogen
In words: Enzyme inhibition assay (FRET, Z-LYTE), p38 MAPK alpha, via activation of MAPKAP-K2. It counts as biochemical. The conditions noted are these: read-out: IC50 values p38α enzyme.

For series [3], the system named is Differentiated U937 cells. In words: MTT assay (loss of cell viability). It counts as cell-based, human. The conditions noted are these: loss of cell viability, 10 ug/ml. Background: Tetrazolium dyes change colour on reduction, which living cells bring about.
Series [4] concerns the target T2, recombinant, phosphorylated p38 MAPK gamma (MAPK12:Millipore) (Homo sapiens, UniProt P53778).
T2 construct: purchased Millipore
T2 sequence (P53778 1-367): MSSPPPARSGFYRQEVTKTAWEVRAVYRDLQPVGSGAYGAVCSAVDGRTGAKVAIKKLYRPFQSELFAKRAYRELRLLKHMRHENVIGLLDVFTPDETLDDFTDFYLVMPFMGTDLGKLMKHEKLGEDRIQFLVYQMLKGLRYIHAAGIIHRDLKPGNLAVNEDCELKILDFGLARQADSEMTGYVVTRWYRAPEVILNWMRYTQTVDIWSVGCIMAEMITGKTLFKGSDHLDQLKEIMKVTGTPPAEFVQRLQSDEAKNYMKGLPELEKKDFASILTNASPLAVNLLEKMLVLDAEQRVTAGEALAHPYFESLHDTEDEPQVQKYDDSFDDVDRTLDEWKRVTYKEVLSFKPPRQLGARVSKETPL
In words: Enzyme inhibition assay (FRET, Z-LYTE), p38 MAPK gamma. It counts as biochemical. The conditions noted are these: read-out: IC50 values P38γ enzyme.
Experimental: The enzyme inhibitory activity of compound was determined by fluorescence resonance energy transfer (FRET) using synthetic peptides labelled with both donor and acceptor fluorophores (Z-LYTE, Invitrogen). Briefly, recombinant, phosphorylated p38 MAPK gamma (MAPK12:Millipore) was diluted in HEPES buffer, mixed with compound at desired final concentrations and incubated for two hours at room temperature. The FRET peptide (2 μM) and ATP (100 uM) were next added to the enzyme/compound mixture and incubated for one hour. Development reagent (protease) was added for one hour prior to detection in a fluorescence microplate reader. The site-specific protease only cleaves non-phosphorylated peptide and eliminates the FRET signal. Phosphorylation levels of each reaction were calculated using the ratio of coumarin emission (donor) over fluorescein emission (acceptor) with high ratios indicating high phosphorylation and low ratios, low phosphorylation levels.

Series [5] deals with LPS-induced TNFα release in differentiated U937 cells. Put plainly: LPS-induced TNF alpha release in differentiated U937 cells. It counts as cell-based. The conditions noted are these: Homo sapiens; read-out: R-EC50 values d-U937 cells.
Experimental: U937 cells, human monocytic cell line, were differentiated to macrophage-type cells by incubation with phorbol myristate acetate (PMA; 100 ng/ml) for 48 to 72 hours. Where appropriate, cells were pre-incubated with final concentrations of compound for 2 hrs. Cells were then stimulated with 0.1 μg/mL of LPS (from E. coli: O111:B4, Sigma) for 4 hrs, and the supernatant collected for determination of TNFα concentration by sandwich ELISA (Duo-set, R&D systems).

T1 sequence (Q16539 whole entry): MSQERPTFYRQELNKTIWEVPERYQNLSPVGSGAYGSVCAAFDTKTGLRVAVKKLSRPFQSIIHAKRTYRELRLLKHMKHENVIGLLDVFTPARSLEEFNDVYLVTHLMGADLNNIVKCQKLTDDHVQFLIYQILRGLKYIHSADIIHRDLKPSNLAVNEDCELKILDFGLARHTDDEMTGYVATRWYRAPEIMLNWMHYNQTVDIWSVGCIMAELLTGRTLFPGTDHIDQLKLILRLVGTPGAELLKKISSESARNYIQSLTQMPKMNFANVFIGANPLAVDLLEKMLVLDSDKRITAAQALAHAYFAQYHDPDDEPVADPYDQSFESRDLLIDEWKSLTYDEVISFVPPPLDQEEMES

With `Cc1ccc(-n2nc(C(C)(C)C)cc2NC(=O)Nc2ccc(OCc3ccnc(NC(=O)CN4CCN(C)CC4)c3)c3ccccc23)cc1` [Example 23, N-(4-((4-(3-(3-tert-Butyl-1-p-tolyl-1H-pyrazol-5-yl)ureido)naphthalen-1-yloxy)methyl)pyridin-2-yl)-2-(4-methylpiperazin-1-yl)acetamide], the IC50 (as a rule, the midpoint of a concentration-inhibition curve) in series [1] is less than 0.01 µM; in series [2], less than 0.01 µM; in series [4], less than 0.5 µM. For the same compound, in series [3], the “MTT 4 hr” value was “+ (+ >30% at 10 ug/ml)”. Besides, in series [3], the “MTT 24 hr” value is reported as “+ (+ >30% at 10 ug/ml)”. Also, the EC50 (as a rule, the concentration needed to bring the measured effect to its halfway point) in series [5] is less than 0.01 µM.
In the case of `COCCN1CCN(CC(=O)Nc2cc(COc3ccc(NC(=O)Nc4cc(C(C)(C)C)nn4-c4ccc(C)cc4)c4ccccc34)ccn2)CC1` [Example 24, N-(4-((4-(3-(3-tert-Butyl-1-p-tolyl-1H-pyrazol-5-yl)ureido)naphthalen-1-yloxy)methyl)pyridin-2-yl)-2-(4-(2-methoxyethyl)piperazin-1-yl)acetamide], the IC50 was less than 0.01 µM in series [1], less than 0.01 µM in series [2] and less than 0.5 µM in series [4]. In series [3], the “MTT 4 hr” value is “− (− <30%)”. For the same compound, the “MTT 24 hr” value in series [3] is “− (− <30%)”. Also, the EC50 in series [5] was less than 0.01 µM.
Turning to `CNCC(=O)Nc1cc(COc2ccc(NC(=O)Nc3cc(C(C)(C)C)nn3-c3ccc(C)cc3)c3ccccc23)ccn1` [Example 27, N-(4-((4-(3-(3-tert-Butyl-1-p-tolyl-1H-pyrazol-5-yl)ureido)naphthalen-1-yloxy)methyl)pyridin-2-yl)-2-(methylamino)acetamide], the IC50 in series [1] was less than 0.01 µM; in series [2], less than 0.5 µM; in series [4] it was less than 0.5 µM. The “MTT 4 hr” value in series [3] was “− (− <30%)”. Further, the “MTT 24 hr” value in series [3] is “− (− <30%)”. Further, in series [5], the EC50 was less than 0.01 µM.
On to `COc1ccc(CN(C)CC(=O)Nc2cc(COc3ccc(NC(=O)Nc4cc(C(C)(C)C)nn4-c4ccc(C)cc4)c4ccccc34)ccn2)cc1` [Example 28, N-(4-((4-(3-(3-tert-Butyl-1-p-tolyl-1H-pyrazol-5-yl)ureido)naphthalen-1-yloxy)methyl)pyridin-2-yl)-2-((4-methoxybenzyl)(methyl)amino)acetamide], for which the figures for the IC50 in series [1], in series [2] and in series [4] were less than 0.01 µM, less than 0.5 µM and less than 5 µM, respectively. In series [3], the “MTT 4 hr” value is recorded as “− (− <30%)”. Besides, the “MTT 24 hr” value in series [3] is “− (− <30%)”. The EC50 in series [5] is less than 0.01 µM.
On to `COCCSCC(=O)Nc1cc(COc2ccc(NC(=O)Nc3cc(C(C)(C)C)nn3-c3ccc(C)cc3)c3ccccc23)ccn1` [Example 29, N-(4-((4-(3-(3-tert-Butyl-1-p-tolyl-1H-pyrazol-5-yl)ureido)naphthalen-1-yloxy)methyl)pyridin-2-yl)-2-(2-methoxyethylthio)acetamide], for which the IC50 is less than 0.01 µM in series [1], less than 0.5 µM in series [2] and less than 0.5 µM in series [4]. The “MTT 4 hr” value in series [3] is “− (− <30%)”. Moreover, the “MTT 24 hr” value in series [3] is on record as “− (− <30%)”. In series [5], the EC50 is less than 0.01 µM.
Take `COCCOCCSCC(=O)Nc1cc(COc2ccc(NC(=O)Nc3cc(C(C)(C)C)nn3-c3ccc(C)cc3)c3ccccc23)ccn1` [Example 30, N-(4-((4-(3-(3-tert-Butyl-1-p-tolyl-1H-pyrazol-5-yl)ureido)naphthalen-1-yloxy)methyl)pyridin-2-yl)-2-(2-(2-methoxyethoxy)ethylthio)acetamide]: the IC50 in series [1] was less than 0.01 µM; in series [2], less than 0.5 µM; in series [4], less than 0.5 µM. In addition, in series [3], the “MTT 4 hr” value is “− (− <30%)”. Also, the “MTT 24 hr” value in series [3] is given as “− (− <30%)”. The EC50 in series [5] is less than 0.01 µM.
For the compound `Cc1ccc(-n2nc(C(C)(C)C)cc2NC(=O)Nc2ccc(OCc3ccnc(NC(=O)CSCCN4CCOCC4)c3)c3ccccc23)cc1` [Example 31, N-(4-((4-(3-(3-tert-Butyl-1-p-tolyl-1H-pyrazol-5-yl)ureido)naphthalen-1-yloxy)methyl)pyridin-2-yl)-2-(2-morpholinoethylthio)acetamide], the IC50 was less than 0.01 µM in series [1], less than 0.5 µM in series [2] and less than 0.5 µM in series [4]. In addition, the “MTT 4 hr” value in series [3] was “− (− <30%)”. For the same compound, the “MTT 24 hr” value in series [3] is “+ (+ >30% at 10 ug/ml)”. In addition, the EC50 in series [5] is less than 0.01 µM.
With `Cc1ccc(-n2nc(C(C)(C)C)cc2NC(=O)Nc2ccc(OCc3ccnc(NC(=O)CS(=O)(=O)CCN4CCOCC4)c3)c3ccccc23)cc1` [Example 32, N-(4-((4-(3-(3-tert-Butyl-1-p-tolyl-1H-pyrazol-5-yl)ureido)naphthalen-1-yloxy)methyl)pyridin-2-yl)-2-(2-morpholinoethylsulfonyl)acetamide], the half-maximal inhibitory concentration (IC50) is less than 0.5 µM in series [1], less than 0.01 µM in series [2] and less than 0.5 µM in series [4]. Further, in series [3], the “MTT 4 hr” value was “− (− <30%)”. For the same compound, the “MTT 24 hr” value in series [3] is on record as “− (− <30%)”. The EC50 in series [5] was less than 0.01 µM.
Take `COCCN(CCOC)CC(=O)Nc1cc(COc2ccc(NC(=O)Nc3cc(C(C)(C)C)nn3-c3ccc(C)cc3)c3ccccc23)ccn1` [Example 33, 2-(Bis(2-methoxyethyl)amino)-N-(4-((4-(3-(3-tert-butyl-1-p-tolyl-1H-pyrazol-5-yl)ureido)naphthalen-1-yloxy)methyl)pyridin-2-yl)acetamide]: the IC50 is less than 0.01 µM in series [1], less than 0.01 µM in series [2] and less than 5 µM in series [4]. Besides, in series [3], the “MTT 4 hr” value is reported as “− (− <30%)”. Moreover, the “MTT 24 hr” value in series [3] is “− (− <30%)”. Further, the concentration for a half-maximal effect (EC50) in series [5] was less than 0.01 µM.
Take `COCC(=O)Nc1cc(OCCc2ccc(NC(=O)Nc3cc(C(C)(C)C)nn3-c3ccc(C)cc3)c3ccccc23)ccn1` [Example 43, N-(4-(2-(4-(3-(3-tert-butyl-1-p-tolyl-1H-pyrazol-5-yl)ureido)naphthalen-1-yl)ethoxy)pyridin-2-yl)-2-methoxyacetamide]: the IC50 in series [1] is less than 0.5 µM; in series [2] it was less than 0.5 µM; in series [4], less than 5 µM. Moreover, in series [3], the “MTT 4 hr” value was “− (− <30%)”. In series [3], the “MTT 24 hr” value is “− (− <30%)”. In series [5], the EC50 was less than 0.5 µM.
For `COCC(=O)Nc1cc(CC(C)Oc2ccc(NC(=O)Nc3cc(C(C)(C)C)nn3-c3ccc(C)cc3)c3ccccc23)ccn1` (stereo not drawn) [Example 46, N-(4-(2-(4-(3-(3-tert-Butyl-1-p-tolyl-1H-pyrazol-5-yl)ureido)naphthalen-1-yloxy)propyl)pyridin-2-yl)-2-methoxyacetamide], the 50% inhibitory concentration (IC50) was less than 0.5 µM in series [1], less than 0.5 µM in series [2] and greater than 5 µM in series [4]. Further, the “MTT 4 hr” value in series [3] is recorded as “− (− <30%)”. Moreover, in series [3], the “MTT 24 hr” value is recorded as “− (− <30%)”. Also, the EC50 in series [5] was less than 0.5 µM.
For the compound `COCC(=O)Nc1cc(C(C)COc2ccc(NC(=O)Nc3cc(C(C)(C)C)nn3-c3ccc(C)cc3)c3ccccc23)ccn1` (stereo not drawn) [Example 47, N-(4-(1-(4-(3-(3-tert-Butyl-1-p-tolyl-1H-pyrazol-5-yl)ureido)naphthalen-1-yloxy)propan-2-yl)pyridin-2-yl)-2-methoxyacetamide], the IC50 in series [1] was less than 0.01 µM; in series [2], less than 0.5 µM; in series [4], greater than 5 µM. For the same compound, the “MTT 4 hr” value in series [3] was “− (− <30%)”. For the same compound, in series [3], the “MTT 24 hr” value is recorded as “− (− <30%)”. Further, in series [5], the EC50 was less than 0.01 µM.
